US12415789B2, “Macrocycles comprising a 4-amido-2,4-pentadienoate moiety for the treatment of hypoxic cancers” (Aarhus Universitet, priority 2019, dated 2025)
Like-named read-outs stand apart in the source and are kept apart here.

Assays:
[1] = Chemical stability measurements (UPLC-UV); conditions: 20 μM in sodium tetraborate buffer (pH 10) with 30% MeOH, 23° C., up to 9 hours
Procedure: The stability of compounds under neutral or basic conditions were tested by dissolving compounds to 20 μM in PBS (pH 7.4) or sodium tetraborate buffer (pH 10) both mixed with 30% MeOH. The mixtures were shaken vigorously and injected immediately in the HPLC. The reactions were allowed to run at 23° C. for 9 hours and injections were performed once per hour. The concentrations of unreacted compounds were determined by UPLC-UV (Agilent 1260 infinity II) at 262 nm by injecting 5 μL on a PFP column (Poroshell 120 PFP, 3.0×100 mm, 2.7 micron). The compounds were eluted by a 1 mL/minute-gradient of acetonitrile in H2O from 5% to 95% over 8 minutes, then 95% for 1 minute and then 5% acetonitrile in H2O in 30 seconds.

[2] = test system: tested cell lines; assay: Viability assays, summary statements across the tested cell lines; type: cell-based, human
Procedure: PANC-1 and HaCat cells (PANC-1: RRID:CVCL 0480, taken from a person, HaCat: RRID:CVCL 0038) were cultured in DMEM (Gibco, Cat #: 21969-035) supplemented with FBS (10%, Gibco, Cat #: A31698-02), Penicillin/Streptomycin (1%, Sigma-Aldrich, Cat #: P0781), and Ala-Gln (200 μM, Sigma-Aldrich, Cat #: G8541). BxPC3 cells (RRID:CVCL 0186, taken from a person) were cultured in RPMI 1640 (Gibco, Cat #: 61870-010) supplemented with FBS (10%) and Penicillin/Streptomycin (1%). U2OS (RRID:CVCL 0042) and HCT116 cells (RRID:CVCL 0291, ATCC CCL-247) were cultured in McCoy's 5A (Sigma cat. no. M9309) supplemented with FBS (10%) and Penicillin/Streptomycin (1%). Cells were grown under normoxic conditions in T75 flasks (Biolite, Thermo Scientific, Cat #: 130190) in a humidified atmosphere with 5% CO2 at 37° C. For hypoxic conditions cells were placed in a modular incubator chamber (MIC-101, Billups-Rothenberg) equipped with a 10-cm dish with milliQ water and flushed with CO2/N2 (5%/95%, BioNERT, AGA Cat #: 100466065) for 8 minutes at 20-25 L/minute. […]
Cells were seeded in black 96-well plates (2000 cells/well, 75 μL/well, ThermoFisher Scientific, Cat #: 137103) in complete medium. […] The viability of the cells was assessed by measuring fluorescence in a plate reader (ex/em: 552±10/598±10, Tecan Spark 10M). […]

[3] = test system: BxPC3 cells; assay: Viability assay (CellTiter Blue), BxPC3 cells, hypoxia vs normoxia; type: cell-based, human
Procedure: (§1) PANC-1 and HaCat cells (PANC-1: RRID:CVCL 0480, taken from a person, HaCat: RRID:CVCL 0038) were cultured in DMEM (Gibco, Cat #: 21969-035) supplemented with FBS (10%, Gibco, Cat #: A31698-02), Penicillin/Streptomycin (1%, Sigma-Aldrich, Cat #: P0781), and Ala-Gln (200 μM, Sigma-Aldrich, Cat #: G8541). BxPC3 cells (RRID:CVCL 0186, taken from a person) were cultured in RPMI 1640 (Gibco, Cat #: 61870-010) supplemented with FBS (10%) and Penicillin/Streptomycin (1%). U2OS (RRID:CVCL 0042) and HCT116 cells (RRID:CVCL 0291, ATCC CCL-247) were cultured in McCoy's 5A (Sigma cat. no. M9309) supplemented with FBS (10%) and Penicillin/Streptomycin (1%). Cells were grown under normoxic conditions in T75 flasks (Biolite, Thermo Scientific, Cat #: 130190) in a humidified atmosphere with 5% CO2 at 37° C. For hypoxic conditions cells were placed in a modular incubator chamber (MIC-101, Billups-Rothenberg) equipped with a 10-cm dish with milliQ water and flushed with CO2/N2 (5%/95%, BioNERT, AGA Cat #: 100466065) for 8 minutes at 20-25 L/minute. Cells were passaged approximately every third day by trypsination (Sigma-Aldrich, Cat #: T4049) followed by transfer of ⅕^th of the cells to a new flask. All cell cultures were handled aseptically in a laminar air flow bench and grown in sterile-filtered (Jetbiofil, Cat #: FPE204500) medium according to ATCC's recommendations. All human cell lines were correctly identified by short tandem repeat analysis and tested free of mycoplasma contamination by MycoAlert (Lonza, Cat #: LT07-218).
(§2) Cells were seeded in black 96-well plates (2000 cells/well, 75 μL/well, ThermoFisher Scientific, Cat #: 137103) in complete medium. Subsequently, the cells were allowed to adhere to the substratum overnight. The next day, compounds were serially diluted in DMSO as 200× solutions. The 200× solutions of compounds were initially diluted in complete medium to 4× solutions containing 2% DMSO. Finally, the compounds were given to cells by the addition of 25 μL/well in triplicates resulting in 1× solutions of compounds in 100 μL/well. The cells were then incubated under either normoxia or hypoxia. 90 minutes before the end of the experiment, all cells were given CellTiter Blue (20 μL/well, Promega, Cat #: G8080) and reincubated under normoxia for the remaining time of the experiment. The viability of the cells was assessed by measuring fluorescence in a plate reader (ex/em: 552±10/598±10, Tecan Spark 10M). Data were normalized to the two lowest concentrations of compound and fitted to a 4-parameter nonlinear regression in Prism 7.04 for Windows, GraphPad Software, La Jolla Calif. USA. IC50 values were extrapolated as the X value at Y=50%. Results can be found in Table 1 and the corresponding dose-response curves seen in FIGS. 12 to 17 and in FIGS. 9 to 10.

[4] = test system: PANC-1 cells; assay: Viability assay (CellTiter Blue), PANC-1 cells, hypoxia vs normoxia; type: cell-based, human
Procedure: as §1, §2

[5] = test system: HCT116 cells; assay: Viability assay (CellTiter Blue), HCT116 cells, hypoxia vs normoxia; type: cell-based, human
Procedure: as §1, §2

chemical stability at elevated pH [1]	IC50 ([3]; BxPC3, hypoxic conditions, read-out: IC50 (μM) [1])	IC50 ([3]; BxPC3, normoxic conditions, read-out: IC50 (μM) [2])	IC50 ([4]; PANC1, hypoxic conditions, read-out: IC50 (μM) [1])	IC50 ([4]; PANC1, normoxic conditions, read-out: IC50 (μM) [2])	IC50 ([5]; HCT116, hypoxic conditions, read-out: IC50 (μM) [1])	IC50 ([5]; HCT116, normoxic conditions, read-out: IC50 (μM) [2])	Structure (SMILES)	selectivity indices [2]	Index [3] Selectivity index (IC50 [2]/IC50 [1]) ([3]; BxPC3, normoxic IC50 / hypoxic IC50)	Index [3] Selectivity index (IC50 [2]/IC50 [1]) ([4]; PANC1, normoxic IC50 / hypoxic IC50)	Index [3] Selectivity index (IC50 [2]/IC50 [1]) ([5]; HCT116, normoxic IC50 / hypoxic IC50)
decreased stability	–	–	–	–	–	–	C=C1/C=C/C(=O)N(C)CC(=O)N[C@@H]([C@H](O)C(N)=O)C(=O)OC([C@H](C)CCCCCC)[C@H](C)C(=O)N1 (some centres unmarked) [rakicidin D]	–	–	–	–
–	1.2 µM	4.7 µM	0.76 µM	6.2 µM	0.73 µM	3 µM	C=C1/C=C/C(=O)N(C)CC(=O)N[C@@H](CCCCNC(=O)OC(C)(C)C)COc2cc(CCCCCCCCCCCC)ccc2C(=O)N1 [PH911, tert-butyl (S,E)-(4-(16-dodecyl-7-methyl-11-methylene-5,8,13-trioxo-2,3,4,5,6,7,8,11,12,13-decahydrobenzo[n][1]oxa[4,7,12]-triazacyclopentadecin-3-yl)butyl)carbamate]	four to eight-fold	3.9	8.1	4.2
